Measurements as given in patent US20250326814A1, “MODIFIED OXYNTOMODULIN AND METHODS OF USE THEREOF” (OPKO BIOLOGICS LTD., priority 2024, published 2025).
Each block holds one compound with its values, some of them ahead of it. Non-standard residues stand in square brackets, D forms with d. Residues, ends and D or L forms follow the SMILES beside them. No end group written: not given here. *: point of attachment. X3 = O=C(O)CCCCCCCCCCCCCCCCCCC(=O)N[C@@H](CCC(=O)N[C@@H](CCC(=O)O)C(=O)NCCOCCOCC(=O)NCCOCCOCC(=O)NCCOCCOCC(=O)N[C@@H](CCCCNC(=O)C*)C(=O)NCC(=O)O)C(=O)O; X4 = O=C(O)CCCCCCCCCCCCCCCCC(=O)N[C@@H](CCC(=O)NCCOCCOCC(=O)NCCOCCOCC(=O)N[C@@H](CCCCNC(=O)C*)C(=O)NCC(=O)O)C(=O)O; Aib = CC(C)(N)C(=O)O

How the values were obtained:
GLP1 = GLP1 (Homo sapiens, UniProt P43220); experiment: CBA potency assay, GLP1 (Tables 10 and 11); type: cell-based
GLP1, sequence (P43220 24-463): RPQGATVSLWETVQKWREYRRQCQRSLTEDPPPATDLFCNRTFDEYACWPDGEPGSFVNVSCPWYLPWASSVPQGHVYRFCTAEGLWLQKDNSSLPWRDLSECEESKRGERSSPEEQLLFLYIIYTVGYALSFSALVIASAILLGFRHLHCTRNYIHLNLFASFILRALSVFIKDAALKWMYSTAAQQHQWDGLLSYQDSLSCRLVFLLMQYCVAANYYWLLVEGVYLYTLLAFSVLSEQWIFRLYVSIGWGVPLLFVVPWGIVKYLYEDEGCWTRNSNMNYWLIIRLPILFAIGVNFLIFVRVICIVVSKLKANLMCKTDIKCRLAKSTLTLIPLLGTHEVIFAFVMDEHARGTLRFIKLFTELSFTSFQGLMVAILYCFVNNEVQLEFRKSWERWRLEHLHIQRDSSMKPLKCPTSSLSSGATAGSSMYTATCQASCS
Description: (§3) The impact of the longevity-enabling molecule (PEG Vs. FA-peptide/binder complex) on the peptide potency was studied.

GCGR = GCGR (Homo sapiens, UniProt P47871); experiment: CBA potency assay, GCGR (Tables 10 and 11); type: cell-based
GCGR, sequence (P47871 26-477): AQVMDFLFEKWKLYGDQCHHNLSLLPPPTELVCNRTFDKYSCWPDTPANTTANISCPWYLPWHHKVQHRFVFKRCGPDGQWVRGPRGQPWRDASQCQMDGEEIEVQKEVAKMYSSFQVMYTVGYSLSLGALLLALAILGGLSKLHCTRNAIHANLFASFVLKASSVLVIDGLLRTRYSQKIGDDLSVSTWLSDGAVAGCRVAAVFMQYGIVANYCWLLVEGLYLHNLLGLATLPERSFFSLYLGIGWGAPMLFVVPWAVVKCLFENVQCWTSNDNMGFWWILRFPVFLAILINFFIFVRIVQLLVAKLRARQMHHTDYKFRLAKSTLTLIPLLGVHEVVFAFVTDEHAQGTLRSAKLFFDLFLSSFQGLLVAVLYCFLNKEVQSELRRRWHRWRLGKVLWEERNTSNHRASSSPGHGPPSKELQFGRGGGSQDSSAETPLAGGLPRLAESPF
Description: as §3

[1] = target: T1, glucagon-like peptide-1 (GLP1) receptor (Homo sapiens, UniProt P43220); experiment: GLP-1 activity EC50 of OXM analogs and GLP-1 therapeutics (Example 4, Table 9); type: cell-based; conditions: GLP-1 activity; Table 9; read-out: EC50
T1 construct: expressed in transfected cells; host or cells: CHO-K1
T1 sequence (P43220 24-463): as the sequence (P43220 24-463) above
Description: The potencies of the modified OXM analogs newly disclosed in the present application, the OXM Analog alone, and the PEGylated OXM analog were examined and compared by measuring the EC50 of both receptors, glucagon-like peptide-1 (GLP1) and glucagon (GCGR).

DIO mice [2] = experiment: Body weight and food intake in DIO mice, 4 weeks daily treatment; type: in vivo; conditions: for food consumption / cumulative food intake (FIG. 17B, 18B): OPK-88604 vs semaglutide; for cumulative food intake on day 28, P compared to Vehicle (FIG. 15): 15 nmol/kg q.d. SC, 4 weeks
Method: The animals were individually weighed and analyzed for lipid and cholesterol levels prior to treatment and following completion of the study. The levels of fasting glucose and insulin levels were analyzed, and oral glucose tolerance test was performed and compared between groups The levels of plasma triglycerides and cholesterol were evaluated at the end of study and compared to base levels prior to treatment. Levels of total cholesterol, triglycerides and glycogen were also examined at the end of study. Histology of liver was used to analyze for lipid droplets in the liver. All tests were conducted using routine methods known in the art.
The mice used in the studies were the gubra diet-induced obese (DIO) mouse model. This mouse model is fed a high fat diet that results in rapid weight gain. The DIO mice were based on male C57BI/6J mice and ready for experiment after 18 weeks on a 60% high fat diet.
To ensure accurate monitoring of weight changes over the course of the study, the animals were weighed daily with precision, prior to dosing at 7:00 AM. Body weight data was recorded in two formats: (1) Absolute measurements: The direct weight of the animal each day, and (2) Relative measurements: The weight expressed as a percentage relative to the body weight recorded on Day 1.
(§1) Sixty C57BL/6JRj male mice were fed a high fat diet (60% HFD, D12492—Ssniff) for 20 weeks before treatment start. […] Body weight and food intake (24 h) were measured daily. In week 3, an OGTT study was performed. Baseline and preterminal fasting blood glucose and plasma insulin were assessed. Preterminal plasma TC and TG were assessed. Terminal endpoints included liver and heart weight, liver TC, TG, […] and lipid content (HE staining).

DIO mice [3] = experiment: Liver H&E staining for lipid droplets / liver lipid in DIO mice; type: in vivo; conditions: 15 nmol/kg QD SC
Method: In summary, glass slides with paraffin embedded sections were deparaffinated in xylene and rehydrated in series of graded ethanol.
Slides treated with histochemical and immunohistochemical stains were scanned using a 20× objective in a ScanScope AT slide scanner (Aperio).
Hematoxylin & Eosin (H&E) staining: Sections of FFPE tissue were incubated in Mayer's Hematoxylin (Dako), washed in tap water, stained in Eosin Y solution (Sigma-Aldrich), dehydrated in graded ethanol and cover slipped.
as §1

DIO mice [4] = experiment: Body composition (fat and lean tissue mass) in DIO mice; type: in vivo
Method: The body composition of mice was assessed by an EchoMRI 3 in 1 Body composition analyzer (EchoMRI, US). Non-anaesthetized animals were placed in a plastic tube inside the MRI scanner for approximately 80 seconds. The body composition was reported as fat mass and fat free mass (lean mass).
as §1

DIO mice [5] = experiment: Fasting blood glucose and plasma insulin in DIO mice; type: in vivo; conditions: 15 nmol/kg q.d.
Method: (§2) For in vivo blood samples, tail-vein, tongue or cheek blood was collected in a Microvette tube of appropriate dimensions with anticoagulant and mixed by inversion 5 times. Blood was placed at 4° C. until centrifuged at 3000 g for 10 minutes. The plasma supernatants were transferred to new tubes and immediately frozen on dry ice. The samples were stored at −70° C.
Insulin: Blood samples were collected in heparinized tubes and plasma was separated and stored at −70° C. until analysis. Insulin was measured using the commercial MSD platform (Meso Scale Diagnostics).
as §1

DIO mice [6] = experiment: Plasma cholesterol and triglyceride in DIO mice; type: in vivo; conditions: 15 nmol/kg q.d.
Method: as §2, with “termination” for “in vivo”, “during anesthesia with isoflurane, the abdominal cavity was opened, and cardiac” for “tail-vein, tongue or cheek”, “drawn with” for “collected in”, “syringe into a Microvette/Vacuette” for “Microvette tube”
Alanine transaminase (ALT), Aspartate transaminase (AST), Triglycerides (TG) and Total Cholesterol (TC): Blood samples were collected in heparinized tubes and plasma was separated and stored at −70° C. until analysis. Samples were measured using commercial kits (Roche Diagnostics), on the cobas c 501 autoanalyzer.
as §1

Compound: OPK-88003 FA-conjugate: either the modified OXM of Formula XXII or the modified OXM of Formula XXIII (H[Aib]QGTFTSDYSKYLDSKKAQEFVQWLLN[Aib]GRNRNNIACC; not fully specified (C-terminus); also: fatty acid binder on Cys38 or Cys39, isomer not given here)
Activity fold reduction compared to OPK-88003 KPI (GLP1) (GLP1; Table 11, without HSA): non
EC50 ratio (GCGR\GLP-1R) (GCGR; Table 10): 7.6
EC50 ratio (GCGR\GLP-1R) (GCGR; Table 11, + HSA): 23.3
EC50 ratio (GCGR\GLP-1R) (GCGR; Table 11, without HSA): 15.2

EC50 [1]: 0.13 nM
% EC50 compare to KPI (GLP1) (GLP1; Table 10): 45%
Activity fold reduction compared to OPK-88003 KPI (GLP1) (GLP1; Table 10): 2.2 fold
EC50 (GLP1; Table 10): 0.282 nM
% EC50 compare to KPI (GCGR) (GCGR; Table 10): 72%
Activity fold reduction compared to OPK-88003 KPI (GCGR) (GCGR; Table 10): 1.4 fold
EC50 (GCGR; Table 10): 0.83 nM
EC50 ratio (GCGR\GLP-1R) (GCGR; Table 10): 2.9
Compound: CC[C@H](C)[C@H](NC(=O)[C@H](CC(N)=O)NC(=O)[C@H](CC(N)=O)NC(=O)[C@H](CCCNC(=N)N)NC(=O)[C@H](CC(N)=O)NC(=O)[C@H](CCCNC(=N)N)NC(=O)CNC(=O)C(C)(C)NC(=O)[C@H](CC(N)=O)NC(=O)[C@H](CC(C)C)NC(=O)[C@H](CC(C)C)NC(=O)[C@H](Cc1c[nH]c2ccccc12)NC(=O)[C@H](CCC(N)=O)NC(=O)[C@@H](NC(=O)[C@H](Cc1ccccc1)NC(=O)[C@H](CCC(=O)O)NC(=O)[C@H](CCC(N)=O)NC(=O)[C@H](C)NC(=O)[C@H](CCCCN)NC(=O)[C@H](CCCCN)NC(=O)[C@H](CO)NC(=O)[C@H](CC(=O)O)NC(=O)[C@H](CC(C)C)NC(=O)[C@H](Cc1ccc(O)cc1)NC(=O)[C@H](CCCCN)NC(=O)[C@H](CO)NC(=O)[C@H](Cc1ccc(O)cc1)NC(=O)[C@H](CC(=O)O)NC(=O)[C@H](CO)NC(=O)[C@@H](NC(=O)[C@H](Cc1ccccc1)NC(=O)[C@@H](NC(=O)CNC(=O)[C@H](CCC(N)=O)NC(=O)C(C)(C)NC(=O)[C@@H](N)Cc1c[nH]cn1)[C@@H](C)O)[C@@H](C)O)C(C)C)C(=O)N[C@@H](C)C(=O)N[C@@H](CS)C(N)=O [MOD-604 KPI] (HELM PEPTIDE1{H.[Aib].Q.G.T.F.T.S.D.Y.S.K.Y.L.D.S.K.K.A.Q.E.F.V.Q.W.L.L.N.[Aib].G.R.N.R.N.N.I.A.C.[am]}$$$$V2.0)

Compound: Semaglutide
absolute body weight at day 28, P compared to Vehicle (FIG. 16A) (DIO mice [2]; 15 nmol/kg QD SC): < 0.01
food consumption / cumulative food intake (FIG. 17B, 18B) (DIO mice [2]; 15 nmol/kg daily, 28 days): reduced food consumption significantly more than OPK-88604 treatment
weight loss from baseline (FIG. 17A, 18A) (DIO mice [2]; 15 nmol/kg daily, 28 days, OPK-88604 vs semaglutide vs placebo): similar
food consumption / cumulative food intake (FIG. 17B, 18B) (DIO mice [2]; 15 nmol/kg daily, 28 days, listed as semaglutide): significantly decreased
cumulative food intake on day 28, P compared to Vehicle (FIG. 15) (DIO mice [2]): < 0.05
relative liver lipid / total liver lipid, P compared to Vehicle (FIG. 31A, 31B) (DIO mice [3]): < 0.05
change in lean tissue mass from baseline, P compared to Vehicle (FIG. 23B) (DIO mice [4]; 15 nmol/kg QD SC): < 0.05
relative fat tissue mass / relative lean tissue mass at week 4, P compared to Vehicle (FIG. 22A, 22B) (DIO mice [4]; 15 nmol/kg QD SC): < 0.05
relative lean body mass and fat mass change from baseline on day 28 (FIG. 24A, 24B) (DIO mice [4]; 15 nmol/kg daily, 28 days, OPK-88604 vs semaglutide): statistically similar

EC50 [1]: 0.15 nM
Compound: CC[C@H](C)[C@H](NC(=O)[C@H](CC(N)=O)NC(=O)[C@H](CC(N)=O)NC(=O)[C@H](CCCNC(=N)N)NC(=O)[C@H](CC(N)=O)NC(=O)[C@H](CCCNC(=N)N)NC(=O)CNC(=O)C(C)(C)NC(=O)[C@H](CC(N)=O)NC(=O)[C@H](CC(C)C)NC(=O)[C@H](CC(C)C)NC(=O)[C@H](Cc1c[nH]c2ccccc12)NC(=O)[C@H](CCC(N)=O)NC(=O)[C@@H](NC(=O)[C@H](Cc1ccccc1)NC(=O)[C@H](CCC(=O)O)NC(=O)[C@H](CCC(N)=O)NC(=O)[C@H](C)NC(=O)[C@H](CCCCN)NC(=O)[C@H](CCCCN)NC(=O)[C@H](CO)NC(=O)[C@H](CC(=O)O)NC(=O)[C@H](CC(C)C)NC(=O)[C@H](Cc1ccc(O)cc1)NC(=O)[C@H](CCCCN)NC(=O)[C@H](CO)NC(=O)[C@H](Cc1ccc(O)cc1)NC(=O)[C@H](CC(=O)O)NC(=O)[C@H](CO)NC(=O)[C@@H](NC(=O)[C@H](Cc1ccccc1)NC(=O)[C@@H](NC(=O)CNC(=O)[C@H](CCC(N)=O)NC(=O)C(C)(C)NC(=O)[C@@H](N)Cc1c[nH]cn1)[C@@H](C)O)[C@@H](C)O)C(C)C)C(=O)N[C@@H](C)C(=O)N[C@@H](CSCC(=O)NCCCC[C@H](NC(=O)COCCOCCNC(=O)COCCOCCNC(=O)COCCOCCNC(=O)[C@H](CCC(=O)O)NC(=O)CC[C@H](NC(=O)CCCCCCCCCCCCCCCCCCC(=O)O)C(=O)O)C(=O)NCC(=O)O)C(N)=O [Variant 3] (H-H[Aib]QGTFTSDYSKYLDSKKAQEFVQWLLN[Aib]GRNRNNIAC(X3)-NH2)

Compound: Tirzepatide [reference compound]
cumulative food intake on day 28, P compared to Vehicle (FIG. 15) (DIO mice [2]): < 0.001
glucose tolerance plasma insulin at week 1, P compared to Vehicle (FIG. 36A) (DIO mice [5]): < 0.01
glucose tolerance plasma insulin at week 4, P compared to Vehicle (FIG. 36B) (DIO mice [5]): < 0.01
relative liver lipid / total liver lipid, P compared to Vehicle (FIG. 31A, 31B) (DIO mice [3]): < 0.01
plasma triglyceride at termination, P compared to Vehicle (FIG. 32B) (DIO mice [6]): < 0.01
absolute fat tissue mass at week 4, P compared to Vehicle (FIG. 21A) (DIO mice [4]; 15 nmol/kg QD SC): < 0.001
relative fat tissue mass / relative lean tissue mass at week 4, P compared to Vehicle (FIG. 22A, 22B) (DIO mice [4]; 15 nmol/kg QD SC): < 0.001

EC50 [1]: 0.1 nM
Compound: CC[C@H](C)[C@H](NC(=O)[C@H](CC(N)=O)NC(=O)[C@H](CC(N)=O)NC(=O)[C@H](CCCNC(=N)N)NC(=O)[C@H](CC(N)=O)NC(=O)[C@H](CCCNC(=N)N)NC(=O)CNC(=O)C(C)(C)NC(=O)[C@H](CC(N)=O)NC(=O)[C@H](CC(C)C)NC(=O)[C@H](CC(C)C)NC(=O)[C@H](Cc1c[nH]c2ccccc12)NC(=O)[C@H](CCC(N)=O)NC(=O)[C@@H](NC(=O)[C@H](Cc1ccccc1)NC(=O)[C@H](CCC(=O)O)NC(=O)[C@H](CCC(N)=O)NC(=O)[C@H](C)NC(=O)[C@H](CCCCN)NC(=O)[C@H](CCCCN)NC(=O)[C@H](CO)NC(=O)[C@H](CC(=O)O)NC(=O)[C@H](CC(C)C)NC(=O)[C@H](Cc1ccc(O)cc1)NC(=O)[C@H](CCCCN)NC(=O)[C@H](CO)NC(=O)[C@H](Cc1ccc(O)cc1)NC(=O)[C@H](CC(=O)O)NC(=O)[C@H](CO)NC(=O)[C@@H](NC(=O)[C@H](Cc1ccccc1)NC(=O)[C@@H](NC(=O)CNC(=O)[C@H](CCC(N)=O)NC(=O)C(C)(C)NC(=O)[C@@H](N)Cc1c[nH]cn1)[C@@H](C)O)[C@@H](C)O)C(C)C)C(=O)N[C@@H](C)C(=O)N[C@@H](CSCC(=O)NCCCC[C@H](NC(=O)COCCOCCNC(=O)COCCOCCNC(=O)CC[C@H](NC(=O)CCCCCCCCCCCCCCCCC(=O)O)C(=O)O)C(=O)NCC(=O)O)C(N)=O [Variant 2] (H-H[Aib]QGTFTSDYSKYLDSKKAQEFVQWLLN[Aib]GRNRNNIAC(X4)-NH2)
